Structures are written as SMILES.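 Cultured in 96-well plates, cells were exposed to test compound for 48 hours across five concentrations. Definition used: TGI = concentration required for complete inhibition of growth.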 Bounds are passed on as bounds.

Among the test systems are KM12 colon; NCI-H23 lung; OVCAR-8 ovarian; SF-268 CNS; SF-295 CNS; SW-620 colon; UACC-257 melanoma; UACC-62 melanoma.
Holding throughout (assay): inhibition of tumour cell growth, NCI panel, 48 h

On to `CC1=C(/C=C/C(C)=C/C=C/C(C)=C/C=C/C=C(C)/C=C/C=C(C)/C=C/C2=C(C)C(=O)C(O)CC2(C)C)C(C)(C)CC(O)C1=O` (stereo not drawn), for which the TGI in the assay on KM12 colon, in the assay on NCI-H23 lung, in the assay with OVCAR-8 ovarian, with SF-268 CNS, in the assay with SF-295 CNS and with SW-620 colon was above 100 µM each time. The TGI in the assay with UACC-257 melanoma and in the assay with UACC-62 melanoma was above 100 µM in each case.

For `CCOC(=O)C1=C(Nc2ccc(Cl)c(Cl)c2)OC/C1=N\NC(=O)Cc1ccccc1`, the TGI with KM12 colon, in the assay with NCI-H23 lung, in the assay with OVCAR-8 ovarian, in the assay with SF-268 CNS, in the assay with SF-295 CNS and with SW-620 colon was above 100 µM in each case. The TGI in the assay on UACC-257 melanoma and in the assay on UACC-62 melanoma was above 100 µM throughout.

In the case of `COc1ccc(N2C(=O)C3c4[nH]c5ccccc5c4C4CCCCCCC4C3C2=O)cc1` (stereo not drawn), the TGI with KM12 colon is above 100 µM; in the assay with NCI-H23 lung, 31.2 µM; with OVCAR-8 ovarian, 13 µM; in the assay on SF-268 CNS, 31.3 µM; with SF-295 CNS it was 26 µM; in the assay on SW-620 colon, 34.1 µM. Also, the TGI in the assay on UACC-257 melanoma was above 100 µM; with UACC-62 melanoma, 39.2 µM.

Turning to `CCCCCCCCCCCCCC(=O)NCC(OCC)OCC`, the TGI in the assay with KM12 colon, in the assay with NCI-H23 lung, in the assay on OVCAR-8 ovarian, in the assay on SF-268 CNS, in the assay on SF-295 CNS and with SW-620 colon was above 100 µM throughout. The TGI with UACC-257 melanoma and in the assay with UACC-62 melanoma was above 100 µM each time.

Consider `O=C1CCN2CCC(=O)c3c2c(cc2ccccc32)N1`, for which the TGI in the assay with KM12 colon, with OVCAR-8 ovarian, with SF-268 CNS, with SF-295 CNS, in the assay on SW-620 colon and in the assay on UACC-257 melanoma was above 100 µM throughout. In the assay with UACC-62 melanoma, the TGI was above 100 µM.

`COc1cc(/C=C/c2ccc(OC)c(OC)c2OC)cc(OC)c1OC`: the TGI in the assay with KM12 colon was 57.3 µM; in the assay on NCI-H23 lung, 69.2 µM; with OVCAR-8 ovarian it was above 87.1 µM; with SF-268 CNS, above 64.2 µM; in the assay with SF-295 CNS, 55.7 µM; in the assay on SW-620 colon it was above 92.6 µM. Also, the TGI stood at 52.8 µM in the assay with UACC-257 melanoma and 28.1 µM with UACC-62 melanoma.

Turning to `COC(=O)C(CC(=O)c1c[nH]c2ccccc12)c1c[nH]c2ccccc12` (stereo not drawn), the TGI in the assay with KM12 colon is above 10 µM; with NCI-H23 lung it was 34 µM; with OVCAR-8 ovarian, 65 µM; in the assay with SF-295 CNS, above 10 µM; in the assay with SW-620 colon, 57.2 µM; with UACC-257 melanoma, 30.4 µM. This compound also displayed a TGI in the assay with UACC-62 melanoma above 10 µM.

On to `COC(=O)[C@]1(C)C(OC)=CC(=O)C2C1[C@H]1CCC[C@@H]21` (stereo partly drawn), for which the TGI with KM12 colon, in the assay on NCI-H23 lung, in the assay with OVCAR-8 ovarian, in the assay on SF-268 CNS, with SF-295 CNS and with UACC-257 melanoma was above 100 µM in each case. In the assay with UACC-62 melanoma, this compound registered a TGI above 100 µM.

Take `Cc1cccc(N=C2NC(=O)C(CC(=O)Nc3ccc(C)cc3C)S2)c1` (stereo not drawn): the TGI in the assay on NCI-H23 lung, in the assay with OVCAR-8 ovarian, in the assay with SF-268 CNS, with SF-295 CNS, in the assay on SW-620 colon and in the assay on UACC-257 melanoma was above 100 µM throughout. Moreover, the TGI in the assay on UACC-62 melanoma was above 100 µM.

For `Nc1ccc(C(=O)CC2(O)C(=O)Nc3c(Cl)cc(Cl)cc32)cc1` (stereo not drawn), the TGI in the assay on KM12 colon is above 100 µM; in the assay with NCI-H23 lung, above 100 µM; with OVCAR-8 ovarian, above 100 µM; in the assay with SF-268 CNS, above 100 µM; in the assay on SF-295 CNS, above 100 µM; in the assay with SW-620 colon, 65.4 µM. The compound also returned a TGI with UACC-257 melanoma above 100 µM.

Turning to `COc1ccccc1NC(=O)C1=C(C)NC(C)=C(C(=O)Nc2ccccc2OC)C1c1ccc(N(C)C)cc1`, the TGI in the assay with KM12 colon was 56.9 µM; in the assay with NCI-H23 lung it was 82.3 µM; in the assay on OVCAR-8 ovarian, 77.3 µM; in the assay on SF-268 CNS, above 100 µM; in the assay on SF-295 CNS it was above 100 µM; with SW-620 colon, above 100 µM. In the assay on UACC-257 melanoma, the TGI was above 100 µM.

Consider `COc1cc(C2c3cc4c(cc3[C@@H](N(C)C)[C@H]3COC(=O)C23)OCO4)cc(OC)c1O` (stereo partly drawn), for which the TGI in the assay on KM12 colon is above 100 µM; in the assay with NCI-H23 lung, above 100 µM; in the assay on OVCAR-8 ovarian it was 80.1 µM; in the assay on SF-268 CNS, above 100 µM; in the assay with SW-620 colon it was above 100 µM; with UACC-257 melanoma it was above 100 µM. In addition, the TGI with UACC-62 melanoma is above 100 µM.

With `Cc1c(Cl)cccc1NC(=O)/C(Cl)=C(\Cl)C(=O)O`, the TGI came to 31.1 µM in the assay with KM12 colon; 33.8 µM in the assay on NCI-H23 lung; 40.9 µM with SF-268 CNS; 37.9 µM in the assay on SF-295 CNS; 39.9 µM in the assay on SW-620 colon; 36.7 µM in the assay with UACC-257 melanoma. This compound gave a TGI in the assay with UACC-62 melanoma of 26.6 µM.

Consider `CC1(O)CCC2(C)C(=O)C1(C)CCC21OCCO1` (stereo not drawn), for which the TGI in the assay with KM12 colon, in the assay with NCI-H23 lung, with OVCAR-8 ovarian, in the assay on SF-268 CNS, in the assay with SF-295 CNS and in the assay with SW-620 colon was above 100 µM in each case. Further, the TGI in the assay with UACC-257 melanoma is above 100 µM.

These data come from PubChem BioAssay (NCI).
